Consider ten compounds from patent US4873342A, “Dipeptide derivative and synthesis and use thereof” (Suntory Limited, priority 1985, dated 1989).

The structures appear in SMILES notation. Peptide text beside a SMILES is read from it. * marks the point of attachment. Hydrocinnamoyl = O=C(CCc1ccccc1)*; PhAc = O=C(Cc1ccccc1)*

The subject of series [1] is Experimental Amnesia caused in Rats by Scopolamine. As to the kind of experiment: Preventive effect against experimental amnesia caused in rats by scopolamine (passive avoidance, intraperitoneal administration). Particulars: for No. of amnesic rats/No. of rats tested / Percentage amnesia / Avoidance time After 24 hrs. / Avoidance time After 48 hrs.: i.p., scopolamine 3 mg/kg i.p. In kind it is in vivo, Wister male rats. How it is done:
Several of the anti-prolyl endopeptidase compounds according to the present invention were checked for their ability to prevent the inhibition of long-term memory fixation by scopolamine. […] One hour after the administration, electric shocks were applied to the rats so that they would acquire passive avoidance learning. Immediately thereafter, scopolamine was administered intraperitoneally to each rat in an amount of 3 mg per kg of body weight.
The results of the test were assessed both 24 hours and 48 hours after the administration of scopolamine. The number of amnesic rats and of sound rats was counted for each of the control group (rats to which the test compounds were not administered but to which only scopolamine and physiological saline were administered intraperitoneally) and the treated group (rats to which both the test compound and scopolamine were administered).

In another series the target is prolyl endopeptidase (Elizabethkingia meningoseptica, UniProt P27028). In words: Measurement of anti-prolyl endopeptidase activity (decomposition of Z-glycyl-prolyl-β-naphthylamide). Type of series: biochemical. The settings on record: substrate Z-glycyl-proline-β-naphthylamide, phosphate buffer pH 7.0. How it is done:
The method of Yoshimoto and Tsuru (T. Yoshimoto and D. Tsuru, Agr. Biol. Chem. 42, 2417, 1978) was used to measure the anti-prolyl endopeptidase activities of several compounds according to the present invention. A mixture of 0.0025M Z--glycyl--proline--β--naphthylamide (0.25 ml), 0.1M phosphate buffer (pH 7.0; 0.99 ml) and a solution of a particular anti-prolyl endopeptidase compound (0.01 ml) was incubated in a test tube at 37° C. for 3 minutes. Thereafter […] of a solution of prolyl endopeptidase (0.2 U/ml) was added and the mixture was heated at 35° C. for 10 minutes. After the reaction, 2.0 ml of Triton x-100 in 1M acetate buffer (pH 4.0) was added to the reaction mixture until the final concentration of the surfactant was 10%. The mixture was left at a room temperature for 15 minutes and the absorbance (a) at 410 nm was measured.
A sample for a blind test was prepared by using the buffer solely in place of the anti-prolyl endopeptidase compound and its absorbance (b) was also measured. The percent inhibition of prolyl endopeptidase was calculated by the formula: [(b-a)/b]×100, and the amount of a specific compound needed to achieve 50% inhibition (IC50) was determined.

Another series relates to CDF-1 strain male mice. As to the kind of experiment: Acute toxicity test in mice. Type of series: in vivo. The settings on record: i.p. in DMSO, five mice per group, observed 24 and 48 hours after administration. Here is the method: The compounds of the present invention were checked for their acute toxicity in CDF-1 strain male mice (body weight: 27.2 to 30.1 g) purchased from Awazu Laboratory Animals Co., Ltd.
Test samples were prepared by dissolving the respective compounds in DMSO, and a portion (0.1 ml) of the so conditioned test sample was administered intraperitoneally to each of the mice used. Each of the treated groups consisted of five mice. After 24 hours and 48 hours had passed from the time of administration, respectively, the mice were observed.

The next series concerns Male mice of ddY-strain. As to the kind of experiment: Anti-hypoxia effect (survival time at 180 mmHg). Particulars: for No. of survival/used, Drug / Survival time, Drug (Mean ± S.E.): mice, 180 mmHg. Type of series: in vivo. Here is the method:
Male mice of ddY-strain weighing 25 to 34 g were allotted to groups consisting of 7 to 10 animals each. Each compound to be tested was suspended in physiological saline with 2 to 3 drops of Tween 80® added thereto, and administered intraperitoneally at the rate of 0.1 ml per 10 g of body weight.
Each mouse was put into a 1 l desiccator 30 minutes after the administration, and the pressure in the desiccator was reduced to 180 mmHg by means of a vacuum pump. The period from the start of pressure reduction to the respiratory arrest of the mouse was assumed to be the survival time (minute) of the mouse.
If the mouse survived more than 15 minutes, its survival time was recorded as being 15 minutes. A student's t-test was adopted for the significance analysis.

Sequence of prolyl endopeptidase (P27028 21-705): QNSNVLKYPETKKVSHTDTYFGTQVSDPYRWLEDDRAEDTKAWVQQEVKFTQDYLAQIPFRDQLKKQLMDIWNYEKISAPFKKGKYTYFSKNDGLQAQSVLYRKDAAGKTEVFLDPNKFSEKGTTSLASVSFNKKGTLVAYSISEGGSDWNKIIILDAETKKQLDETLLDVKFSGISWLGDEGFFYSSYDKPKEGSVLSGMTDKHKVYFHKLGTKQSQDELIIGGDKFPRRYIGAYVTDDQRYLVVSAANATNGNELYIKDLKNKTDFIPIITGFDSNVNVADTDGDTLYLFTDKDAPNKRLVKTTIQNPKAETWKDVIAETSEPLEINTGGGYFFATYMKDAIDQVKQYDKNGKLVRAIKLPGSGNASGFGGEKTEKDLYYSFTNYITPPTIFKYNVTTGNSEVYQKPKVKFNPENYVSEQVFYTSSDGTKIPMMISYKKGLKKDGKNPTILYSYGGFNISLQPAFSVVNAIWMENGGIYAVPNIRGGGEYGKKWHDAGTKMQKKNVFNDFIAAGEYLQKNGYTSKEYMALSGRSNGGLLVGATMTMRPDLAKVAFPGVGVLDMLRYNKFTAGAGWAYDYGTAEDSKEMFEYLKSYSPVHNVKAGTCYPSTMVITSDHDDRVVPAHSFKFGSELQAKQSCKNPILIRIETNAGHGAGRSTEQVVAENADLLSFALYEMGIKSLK

With `C[C@H](NC(=O)CCCc1ccccc1)C(=O)N1CCC[C@H]1C=O` [SUAM 1110, N--(4-phenyl)butanoyl--Ala--Pro--CHO], the “anti-amnesic effect (in words)” value in series [1] (0.025 mg/kg administered) is reported as “very strong effects”; in series [1] (0.1 mg/kg administered) it was “very strong effects”; in series [1] (administration of 1 mg/kg), “did not manifest the desired effect”. In addition, the “No. of amnesic rats/No. of rats tested” value in series [1] (250 μg/kg) is listed as 0/10; in series [1] (1 mg/kg), 1/10. Further, the results for the Percentage amnesia in series [1] (250 μg/kg) and in series [1] (1 mg/kg) were 0 and 10, respectively. In addition, the “Avoidance time After 24 hrs.” value in series [1] (250 μg/kg) was 300.0 s; in series [1] (1 mg/kg), 272.8 s. The “Avoidance time After 48 hrs.” value turned out to be 300.0 s in series [1] (250 μg/kg) and 271.2 s in series [1] (1 mg/kg).
For `CC(C)CC(NC(=O)CCCc1ccccc1)C(=O)N1CCCC1C=O` (stereo not shown) [SUAM 1115, N--(4-phenyl)butanoyl--Leu--Pro--CHO], at prolyl endopeptidase, the “IC50 (amount needed to achieve 50% inhibition of prolyl endopeptidase)” value is 0.3 ng/test tube. The “No. of amnesic rats/No. of rats tested” value is listed as 0/10 in series [1] (25 μg/kg), 0/10 in series [1] (100 μg/kg) and 3/10 in series [1] (250 μg/kg). The Percentage amnesia is 0 in series [1] (25 μg/kg), 0 in series [1] (100 μg/kg) and 30 in series [1] (250 μg/kg). In addition, the entries for the “Avoidance time After 24 hrs.” value in series [1] (25 μg/kg), in series [1] (100 μg/kg) and in series [1] (250 μg/kg) were 300.0 s, 300.0 s and 193.2 s, respectively. Also, the “Avoidance time After 48 hrs.” value was 300.0 s in series [1] (25 μg/kg), 300.0 s in series [1] (100 μg/kg) and 217.1 s in series [1] (250 μg/kg). Besides, the “anti-amnesic effect (in words)” value was “very strong effects” in series [1] (0.025 mg/kg administered), “very strong effects” in series [1] (0.1 mg/kg administered) and “did not manifest the desired effect” in series [1] (administration of 1 mg/kg).
Regarding `CC(C)[C@H](NC(=O)CCCc1ccccc1)C(=O)N1CCC[C@H]1C=O` [SUAM 1117, N--(4-phenyl)butanoyl--Val--Pro--CHO], the “IC50 (amount needed to achieve 50% inhibition of prolyl endopeptidase)” value against prolyl endopeptidase is 0.2 ng/test tube. Also, the “No. of amnesic rats/No. of rats tested” value in series [1] (25 μg/kg) is recorded as 1/10; in series [1] (100 μg/kg), 0/10; in series [1] (250 μg/kg), 4/10; in series [1] (1 mg/kg), 6/10. The Percentage amnesia in series [1] (25 μg/kg) is reported as 10; in series [1] (100 μg/kg), 0; in series [1] (250 μg/kg), 40; in series [1] (1 mg/kg), 60. Also, the “Avoidance time After 24 hrs.” value is 300.0 s in series [1] (25 μg/kg), 300.0 s in series [1] (100 μg/kg), 232.0 s in series [1] (250 μg/kg) and 161.6 s in series [1] (1 mg/kg). For the same compound, the “Avoidance time After 48 hrs.” value in series [1] (25 μg/kg) worked out at 289.5 s; in series [1] (100 μg/kg), 300.0 s; in series [1] (250 μg/kg), 194.4 s; in series [1] (1 mg/kg), 125.0 s. Moreover, the “anti-amnesic effect (in words)” value in series [1] (0.025 mg/kg administered) is given as “very strong effects”; in series [1] (0.1 mg/kg administered), “very strong effects”; in series [1] (administration of 1 mg/kg), “did not manifest the desired effect”.
As to `O=C[C@@H]1CCCN1C(=O)[C@@H]1CCCN1C(=O)CCCc1ccccc1` [SUAM 1231, N--(4-phenyl)butanoyl--Pro--Pro--CHO], the “IC50 (amount needed to achieve 50% inhibition of prolyl endopeptidase)” value on prolyl endopeptidase was 0.2 ng/test tube. The “Average-Dose at which the mice remained sound and showed no sign of intoxication” value with CDF-1 strain male mice is 634.6 mg/kg. Also, in series [1] (20 μg/kg), the “No. of amnesic rats/No. of rats tested” value is 0/10, the Percentage amnesia came out at 0 and the “Avoidance time After 24 hrs.” value stood at 300.0 s. In series [1] (at 0.020 mg/kg), the “anti-amnesic effect (in words)” value was “strong effect”.
In the case of `O=C[C@@H]1CCCN1C(=O)[C@H](Cc1ccccc1)NC(=O)CCCc1ccccc1` [SUAM 1234, N--(4-phenyl)butanoyl--Phe--Pro--CHO], at prolyl endopeptidase, the “IC50 (amount needed to achieve 50% inhibition of prolyl endopeptidase)” value was 0.3 ng/test tube. In addition, the “Survival time Ratio (Drug/Control)” value in the series on Male mice of ddY-strain (1 mg/kg i.p.) amounted to 1.24; with Male mice of ddY-strain (10 mg/kg i.p.) it was 1.09. In addition, the “No. of survival/used, Drug” value with Male mice of ddY-strain (1 mg/kg i.p.) and in the series on Male mice of ddY-strain (10 mg/kg i.p.) was 0/7 in each case. Moreover, the “Survival time, Drug (Mean ± S.E.)” value with Male mice of ddY-strain (1 mg/kg i.p., control 2.32 ± 0.11, *P < 0.05) was 2.88 ± 0.17 min; with Male mice of ddY-strain (10 mg/kg i.p., control 2.25 ± 0.15), 2.45 min.
As to `CCCCC(NC(=O)CCCc1ccccc1)C(=O)N1CCCC1C=O` (stereo not shown) [SUAM 1333, N--(4-phenyl)butanoyl--norLeu--Pro--CHO], the “IC50 (amount needed to achieve 50% inhibition of prolyl endopeptidase)” value against prolyl endopeptidase worked out at 0.4 ng/test tube. The “Average-Dose at which the mice remained sound and showed no sign of intoxication” value in the series on CDF-1 strain male mice is recorded as 707.7 mg/kg. In addition, in series [1] (20 μg/kg), the “No. of amnesic rats/No. of rats tested” value is recorded as 0/10, the Percentage amnesia is 0 and the “Avoidance time After 24 hrs.” value was found to be 300.0 s. Moreover, in series [1] (at 0.020 mg/kg), the “anti-amnesic effect (in words)” value was “strong effect”.
As for `O=C[C@@H]1CCCN1C(=O)[C@@H]1CCCN1C(=O)Cc1ccccc1` [SUAM 1336, N--(2-phenyl)acetyl--Pro--Pro--CHO] (PhAc-Pro-Pro-aldehyde), on prolyl endopeptidase, the “IC50 (amount needed to achieve 50% inhibition of prolyl endopeptidase)” value is 1.0 ng/test tube.
Still for that read-out and setting: to `O=C[C@@H]1CCCN1C(=O)[C@@H]1CCCN1C(=O)CCc1ccccc1` [SUAM 1339, N--(3-phenyl)propionyl--Pro--Pro--CHO] (Hydrocinnamoyl-Pro-Pro-aldehyde) belongs 0.4 ng/test tube.
The same measure, in the same setting: to `O=C[C@@H]1CCCN1C(=O)[C@@H]1CCCN1C(=O)CCCCc1ccccc1` [SUAM 1342, N--(5-phenyl)pentanoyl--Pro--Pro--CHO] belongs 0.2 ng/test tube.
Still for that read-out and setting: to `CSCC[C@H](NC(=O)CCCc1ccccc1)C(=O)N1CCC[C@H]1C=O` [SUAM 1345, N--(4-phenyl)butanoyl--Met--Pro--CHO] belongs 0.7 ng/test tube.
